Experimental data reported in article PMC8510601, “Discovery of benzamide-hydroxypyridinone hybrids as potent multi-targeting agents for the treatment of Alzheimer's disease” (Journal of Enzyme Inhibition and Medicinal Chemistry, 2021).

How the values were obtained:
MAO-B = target: T1, MAO-B (Homo sapiens, UniProt P27338); assay: Human MAO-B inhibition assay; format: biochemical; conditions: for inhibition at 0.1 µM: 100 nM, read-out: Inhibitory rate ± SEM (%, 100 nM); for inhibition at 1 µM: read-out: Inhibitory rate ± SEM (%, 1 μM); for IC50: ± SEM, read-out: IC50 against MAO-B
T1 sequence (P27338 1-520): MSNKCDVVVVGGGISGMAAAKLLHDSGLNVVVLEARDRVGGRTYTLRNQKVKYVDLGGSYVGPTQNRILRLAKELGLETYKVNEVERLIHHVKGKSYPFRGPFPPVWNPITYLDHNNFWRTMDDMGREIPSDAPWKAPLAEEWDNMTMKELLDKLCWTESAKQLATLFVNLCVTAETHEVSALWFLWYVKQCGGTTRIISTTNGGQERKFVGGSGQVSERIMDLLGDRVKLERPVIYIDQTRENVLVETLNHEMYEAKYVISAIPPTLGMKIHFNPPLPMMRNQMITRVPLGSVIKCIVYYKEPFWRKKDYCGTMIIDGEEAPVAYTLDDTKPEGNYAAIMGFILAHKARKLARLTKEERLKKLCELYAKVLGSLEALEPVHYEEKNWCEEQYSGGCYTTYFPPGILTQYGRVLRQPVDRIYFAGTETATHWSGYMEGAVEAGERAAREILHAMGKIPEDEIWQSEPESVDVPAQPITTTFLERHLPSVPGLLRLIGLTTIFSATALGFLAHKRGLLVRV

[1] = pKa determination by spectrophotometric titration; conditions: 0.1 M KCl aqueous solution, pH range 2.0–10.5, 25 °C
[2] = Iron-chelating activity test: affinity constants for Fe3+ and pFe3+; conditions: for Log β2 / Log β3: KCl (0.1 M): DMSO = 3:2 (v/v); for Log β1: KCl (0.1 M): DMSO = 9:1 (v/v); for pFe^3+: pH 7.4, [Fe3+]total = 10^−6 M, [ligand]total = 10^−5 M, calculated from pKa and log β measured in KCl/DMSO

Structure (SMILES) | inhibition at 0.1 µM (MAO-B) [%] | inhibition at 1 µM (MAO-B) [%] | IC50 (MAO-B) [nM] | pKa ([1]; KCl (0.1 M)) | pKa ([1]; pKa2, KCl (0.1 M)) | melting point [°C] | Log β2 [2] | Log β3 [2] | Log β1 [2] | pFe^3+ [2]
Cc1cccc(COc2ccc(C(=O)NCCn3ccc(=O)c(O)c3C)cc2)c1 [Compound 8s] | 49.3 ± 2.58 | 71.3 ± 1.02 | 122.3 ± 0.21 | 3.31 | 9.86 | – | 26.67 | 35.67 | 14.67 | 18.85
C#CCOc1ccc(C(=O)NCCn2ccc(=O)c(O)c2C)cc1 [Compound 8j] | 38.7 ± 0.94 | 58.6 ± 1.18 | – | 3.41 | 9.88 | 208 to 210 | 26.14 | 35.24 | 14.67 | 18.35
Cc1c(O)c(=O)ccn1CCNC(=O)c1ccncc1 [Compound 11c] | 29.1 ± 2.14 | 69.7 ± 2.38 | – | 3.15 | 9.81 | 280 to 282 | 26.21 | 35.58 | 14.74 | 18.89
Cc1c(O)c(=O)ccn1CCNC(=O)c1cccnc1 [Compound 11b] | 34.1 ± 1.58 | 60.8 ± 1.99 | 248 ± 9.56 | 3.09 | 9.79 | 266 to 268 | 25.68 | 34.75 | 14.40 | 18.13
Cc1c(O)c(=O)ccn1CCNC(=O)c1ccc(OCc2cc(F)ccc2F)cc1 [Compound 8p] | 41.4 ± 2.45 | 65.1 ± 1.47 | 175 ± 6.73 | 3.27 | 9.82 | 236 to 238 | 26.58 | 35.44 | 14.47 | 18.74
COc1cccc(C(=O)NCCn2ccc(=O)c(O)c2C)c1 [Compound 8c] | 31.9 ± 0.85 | 59.97 ± 0.14 | – | 3.37 | 9.83 | 218 to 220 | 26.17 | 35.55 | 14.68 | 18.80
Cc1c(O)c(=O)ccn1CCNC(=O)c1ccccc1OCc1ccccc1 [Compound 8e] | 33.1 ± 1.43 | 51.5 ± 1.06 | – | 3.38 | 9.99 | 180 to 182 | 26.46 | 35.64 | 14.66 | 18.43
Cc1c(O)c(=O)ccn1CCNC(=O)c1ccc(OCC2CCCCC2)cc1 [Compound 8k] | 39.5 ± 2.38 | 63.3 ± 0.92 | 189 ± 7.51 | 3.21 | 9.89 | 274 to 276 | 26.31 | 35.84 | 14.44 | 18.91
Cc1c(O)c(=O)ccn1CCNC(=O)c1ccc(OCc2cccc(F)c2)cc1 [Compound 8l] | > 50 | > 80 | 96.4 ± 6.78 | 3.51 | 9.74 | – | 26.72 | 35.87 | 14.76 | 19.39

Now from value to compound, other results behind:

inhibition at 0.1 µM (MAO-B) [%] | inhibition at 1 µM (MAO-B) [%] | IC50 (MAO-B) [nM] | pKa ([1]; KCl (0.1 M)) | pKa ([1]; pKa2, KCl (0.1 M)) | melting point [°C] | Structure (SMILES) | Log β2 [2] | Log β3 [2] | Log β1 [2] | pFe^3+ [2]
38.8 ± 1.16 | 59.9 ± 1.57 | – | 3.41 | 9.88 | – | COc1ccccc1C(=O)NCCn1ccc(=O)c(O)c1C [Compound 8b] | 26.20 | 35.45 | 14.64 | 18.56
47.7 ± 6.06 | 72.4 ± 3.26 | 110.9 ± 1.1 | 3.32 | 9.55 | 236 to 238 | Cc1c(O)c(=O)ccn1CCNC(=O)c1ccc(OCc2cccc(Cl)c2)cc1 [Compound 8n] | 25.95 | 34.39 | 14.64 | 18.51
48.1 ± 1.57 | 66.75 ± 0.34 | 119 ± 2.76 | 3.27 | 9.8 | 246 to 248 | CCOc1ccc(C(=O)NCCn2ccc(=O)c(O)c2C)cc1 [Compound 8h] | 26.06 | 35.33 | 14.67 | 18.67
48.9 ± 1.93 | 64.2 ± 1.94 | 124 ± 1.32 | 3.29 | 9.56 | 245 to 247 | Cc1c(O)c(=O)ccn1CCNC(=O)c1ccc(OCc2ccc(C(C)(C)C)cc2)cc1 [Compound 8v] | 25.51 | 35.20 | 14.69 | 19.25
> 50 | 53.41 ± 0.31 | 89.1 ± 10.1 | 3.41 | 9.84 | 214 to 243 | CCCOc1ccc(C(=O)NCCn2ccc(=O)c(O)c2C)cc1 [Compound 8i] | 25.98 | 35.18 | 14.56 | 18.40
46.5 ± 6.99 | 63.4 ± 4.06 | 187.7 ± 0.42 | 3.25 | 9.78 | 268 to 270 | Cc1c(O)c(=O)ccn1CCNC(=O)c1ccc(OCc2ccc(C(F)(F)F)cc2)cc1 [Compound 8r] | 26.01 | 34.98 | 14.48 | 18.39
36.02 ± 0.15 | 63 ± 3.9 | 210.8 ± 1.21 | 3.34 | 9.82 | 241 to 243 | COc1ccc(C(=O)NCCn2ccc(=O)c(O)c2C)cc1 [Compound 8d] | 25.95 | 35.25 | 14.52 | 18.53
48.5 ± 4.37 | 63.6 ± 4.14 | 139 ± 1.74 | 3.33 | 9.63 | – | Cc1c(O)c(=O)ccn1CCNC(=O)c1ccc(OCc2ccc(Cl)cc2)cc1 [Compound 8o] | 26.09 | 34.55 | 14.43 | 18.44
49.7 ± 4.22 | 63.9 ± 0.67 | 93.8 ± 6.48 | 3.27 | 9.82 | – | Cc1c(O)c(=O)ccn1CCNC(=O)c1ccc(OCc2cc(F)cc(F)c2)cc1 [Compound 8q] | 26.63 | 35.73 | 14.61 | 19.01
